Assay results published in patent US9802920B2, “Inhibitors of bruton's tyrosine kinase” (HOFFMANN-LA ROCHE INC., priority 2013, dated 2017).

Each compound was assayed against Btk enzyme (His-tagged, full-length) (Homo sapiens (Human), UniProt Q06187) (assay: Bruton's Tyrosine Kinase (Btk) Inhibition Assay, radioactive 33P filtration capture). Conditions: 100 μM ATP, 30 μM peptide substrate; read-out: Radiometric IC50.
Sequence of Btk enzyme (His-tagged, full-length) (Q06187 whole entry): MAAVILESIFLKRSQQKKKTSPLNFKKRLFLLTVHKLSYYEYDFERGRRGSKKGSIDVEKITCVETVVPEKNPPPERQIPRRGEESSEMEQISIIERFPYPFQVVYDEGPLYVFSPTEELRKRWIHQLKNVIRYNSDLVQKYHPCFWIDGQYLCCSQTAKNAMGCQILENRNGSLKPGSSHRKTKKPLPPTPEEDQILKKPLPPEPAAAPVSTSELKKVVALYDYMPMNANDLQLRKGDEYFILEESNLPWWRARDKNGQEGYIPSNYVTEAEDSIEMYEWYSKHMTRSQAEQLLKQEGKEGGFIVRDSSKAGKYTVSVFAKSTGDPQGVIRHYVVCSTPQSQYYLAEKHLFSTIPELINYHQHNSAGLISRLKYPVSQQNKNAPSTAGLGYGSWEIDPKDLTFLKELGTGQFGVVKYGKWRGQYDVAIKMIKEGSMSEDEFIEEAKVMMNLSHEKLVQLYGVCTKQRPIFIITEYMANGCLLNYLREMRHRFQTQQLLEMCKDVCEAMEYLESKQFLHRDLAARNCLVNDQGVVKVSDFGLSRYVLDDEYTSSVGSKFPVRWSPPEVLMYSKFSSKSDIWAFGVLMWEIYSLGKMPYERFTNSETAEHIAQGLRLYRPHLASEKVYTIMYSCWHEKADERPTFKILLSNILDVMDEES
Format: biochemical
Description: Bruton's Tyrosine Kinase (Btk) Inhibition Assay
The assay is a capture of radioactive ^33P phosphorylated product through filtration. The interactions of Btk, biotinylated SH2 peptide substrate (Src homology), and ATP lead to phosphorylation of the peptide substrate. Biotinylated product is bound streptavidin sepharose beads. All bound, radiolabeled products are detected by scintillation counter.
Plates assayed are 96-well polypropylene (Greiner) and 96-well 1.2 μm hydrophilic PVDF filter plates (Millipore). Concentrations reported here are final assay concentrations: 10-100 μM compounds in DMSO (Burdick and Jackson), 5-10 nM Btk enzyme (His-tagged, full-length), 30 μM peptide substrate (Biotin-Aca-[…]-NH2), 100 μM ATP (Sigma), 8 mM imidazole (Sigma, pH 7.2), 8 mM glycerol-2-phosphate (Sigma), 200 μM EGTA (Roche Diagnostics), 1 mM MnCl2 (Sigma), 20 mM mgCl2 (Sigma), 0.1 mg/mL BSA (Sigma), 2 mM DTT (Sigma), 1 μCi ^33P ATP (Amersham), 20% streptavidin sepharose beads (Amersham), 50 mM EDTA (Gibco), 2 M NaCl (Gibco), 2 M NaCl w/1% phosphoric acid (Gibco), microscint-20 (Perkin Elmer).
IC50 determinations are calculated from 10 data points per compound utilizing data produced from a standard 96-well plate assay template. One control compound and seven unknown inhibitors were tested on each plate and each plate was run twice. Typically, compounds were diluted in half-log starting at 100 μM and ending at 3 nM. The control compound was staurosporine. Background was counted in the absence of peptide substrate. Total activity was determined in the presence of peptide substrate. The following protocol was used to determine Btk inhibition.
Sample preparation: The test compounds were diluted at half-log increments in assay buffer (imidazole, glycerol-2-phosphate, EGTA, MnCl2, mgCl2, BSA).
1) Rinse beads by centrifuging at 500 g
2) Reconstitute the beads with PBS and EDTA to produce a 20% bead slurry
3) Pre-incubate reaction mix without substrate (assay buffer, DTT, ATP, ^33P ATP) and mix with substrate (assay buffer, DTT, ATP, ^33P ATP, peptide substrate) 30° C. for 15 min.
4) To start assay, pre-incubate 10 μL Btk in enzyme buffer (imidazole, glycerol-2-phosphate, BSA) and 10 μL of test compounds for 10 min at RT.
5) Add 30 μL reaction mixture without or with substrate to Btk and compounds.
6) Incubate 50 μL total assay mix for 30 min at 30° C.
7) Transfer 40 μL of assay to 150 μL bead slurry in filter plate to stop reaction.
8) Wash filter plate after 30 min, with following steps
3×250 μL NaCl containing 1% phosphoric acid
9) Dry plate for 1 h at 65° C. or overnight at RT
10) Add 50 μL microscint-20 and count ^33P cpm on scintillation counter. […]
`Nc1c(C(=O)c2cc3ccccc3[nH]2)cnn1-c1ccc(Oc2ccccc2)nc1` [Compound I-2, [5-Amino-1-(6-phenoxy-pyridin-3-yl)-1H-pyrazol-4-yl]-(1H-indol-2-yl)-methanone] was tested, and the IC50 was 869 nM.
`Nc1c(C(=O)c2cc3ccccc3[nH]2)cnn1-c1ccc(Oc2ccccn2)cc1` [Compound I-3, {5-Amino-1-[4-(pyridin-2-yloxy)-phenyl]-1H-pyrazol-4-yl}-(1H-indol-2-yl)-methanone] showed an IC50 of 502 nM.
For `Nc1c(C(=O)c2cc3ccccc3[nH]2)cnn1-c1ccc(Oc2cccnc2)cc1` [Compound I-4, {5-Amino-1-[4-(pyridin-3-yloxy)-phenyl]-1H-pyrazol-4-yl}-(1H-indol-2-yl)-methanone], the IC50 was 22000 nM.
For `CC(C)Oc1ccc(-n2ncc(C(=O)c3cc4ccccc4[nH]3)c2N)cc1` [Compound I-11, [5-Amino-1-(4-isopropoxy-phenyl)-1H-pyrazol-4-yl]-(1H-indol-2-yl)-methanone], the IC50 was 73800 nM.

These compounds were tested against inactivated state of Bruton's Tyrosine Kinase (Homo sapiens (Human), UniProt Q06187) (assay: Bruton's Tyrosine Kinase (BTK) Inhibition TR-FRET competition assay). Conditions: Kinase Tracer 178, incubated 18-24 h at 14° C.
Sequence of inactivated state of Bruton's Tyrosine Kinase (Q06187 whole entry): as above
Format: binding
Description: Calculate percent activity from raw data in cpm percent activity=(sample−bkg)/(total activity−bkg)×100 Calculate IC50 from percent activity, using one-site dose response sigmoidal model y=A+((B−A)/(1+((x/C)^D)))) x=cmpd conc, y=% activity, A=min, B=max, C=IC50, D=1 (hill slope) Bruton's Tyrosine Kinase (BTK) Inhibition TR-FRET (Time Resolved FRET) Assay
This BTK competition assay measures compound potency (IC50) for the inactivated state of Bruton's Tyrosine Kinase using FRET (Förster/Flouresence Resonance Energy Transfer) technology. The BTK-Eu complex was incubated on ice one hour prior to use at a starting concentration of 50 nM BTK-Bioease™: 10 nM Eu-streptavidin (Perkin-Elmer Catalog# AD0062). The assay buffer consisted of 20 mM HEPES (pH 7.15), 0.1 mM DTT, 10 mM MgCl2, 0.5 mg/ml BSA with 3% Kinase Stabilizer (Fremont Biosolutions, Catalog # STB-K02). After 1 h, the reaction mixture from above was diluted 10 fold in assay buffer to make 5 nM BTK: 1 nM Eu-Streptavidin complex (donor fluorophore). 18 μl of a mixture of 0.11 nM BTK-Eu and 0.11 nM Kinase Tracer 178 (Invitrogen, Catalog # PV5593) with BTK-Eu alone as no negative control, was then dispensed into 384-well flat bottom plates (Greiner, 784076). Compounds to be tested in assay were prepared as 10× concentrations and serial dilution in half-log increments was performed in DMSO so as to generate 10 point curves. To initiate the FRET reaction, compounds prepared as 10× stock in DMSO was added to the plates and the plates were incubated 18-24 h at 14° C.
After the incubation the plates were read on a BMG Pherastar Fluorescent plate reader (or equivalent) and used to measure the emission energy from the europium donor fluorophore (620 nm emission) and the FRET (665 nm emission). The negative control well values were averaged to obtain the mean minimum. The positive “no inhibitor” control wells were averaged to obtain the mean maximum. Percent of maximal FRET was calculated using following equation: % max FRET=100×[(FSRcmpd−FSRmean min)/(FSRmean max−FSRmean min)] where FSR=FRET Signal ratio. % Max FRET curves were plotted in Activity Base (Excel) and the IC50(%), hill slope, z′ and % CV were determined. The mean IC50 and standard deviation will be derived from duplicate curves (singlet inhibition curves from two independent dilutions) using Microsoft Excel.
For `Nc1c(C(=O)c2cc3ccccc3[nH]2)cnn1-c1ccc(Oc2ccccc2)c(F)c1` [Compound I-1, [5-Amino-1-(3-fluoro-4-phenoxy-phenyl)-1H-pyrazol-4-yl]-(1H-indol-2-yl)-methanone], the IC50 was 41 nM.
`Nc1c(C(=O)c2cc3ccccc3[nH]2)cnn1-c1ccc(Oc2ccccc2)c(Cl)c1` [Compound I-5] was tested, and the IC50 was 216 nM.
For `Nc1c(C(=O)c2cc3ccccc3[nH]2)cnn1-c1ccc(Oc2ccc(F)c(F)c2)cc1` [Compound I-6, {5-Amino-1-[4-(3,4-difluoro-phenoxy)-phenyl]-1H-pyrazol-4-yl}-(1H-indol-2-yl)-methanone], the IC50 was 1000 nM.
For `Nc1c(C(=O)c2cc3ccccc3[nH]2)cnn1-c1ccc(Oc2ccccc2)c(O)c1` [Compound I-8, [5-Amino-1-(3-hydroxy-4-phenoxy-phenyl)-1H-pyrazol-4-yl]-(1H-indol-2-yl)-methanone], the IC50 was 59 nM.
Work on `COc1cc(Oc2ccccc2)ccc1-n1ncc(C(=O)c2cc3ccccc3[nH]2)c1N` [Compound I-9, [5-Amino-1-(2-methoxy-4-phenoxy-phenyl)-1H-pyrazol-4-yl]-(1H-indol-2-yl)-methanone] yielded an IC50 of 146 nM.
`Nc1c(C(=O)c2cc3ccccc3[nH]2)cnn1-c1ccc(Oc2ccccc2)cc1O` [Compound I-10, [5-Amino-1-(2-hydroxy-4-phenoxy-phenyl)-1H-pyrazol-4-yl]-(1H-indol-2-yl)-methanone] showed an IC50 of 162 nM.
In the case of `Nc1c(C(=O)c2cc3ccccc3[nH]2)cnn1-c1ccc(OC2CCCC2)cc1` [Compound I-12, [5-Amino-1-(4-cyclopentyloxy-phenyl)-1H-pyrazol-4-yl]-(1H-indol-2-yl)-methanone], the FRET IC50 is reported as > 1000 nM.
`CC(C)(C)COc1ccc(-n2ncc(C(=O)c3cc4ccccc4[nH]3)c2N)cc1` [Compound I-13, {5-Amino-1-[4-(2,2-dimethyl-propoxy)-phenyl]-1H-pyrazol-4-yl}-(1H-indol-2-yl)-methanone] was tested, and the FRET IC50 was > 1000 nM.
Work on `Cc1cc(Oc2cccc(F)c2F)ccc1-n1ncc(C(=O)c2cc3ccccc3[nH]2)c1N` [Compound I-14, {5-Amino-1-[4-(2,3-difluoro-phenoxy)-2-methyl-phenyl]-1H-pyrazol-4-yl}-(1H-indol-2-yl)-methanone] yielded an IC50 of 3 nM.
Compound `Cc1cc(Oc2ccccc2C#N)ccc1-n1ncc(C(=O)c2cc3ccccc3[nH]2)c1N` [Compound I-15, 2-{4-[5-Amino-4-(1H-indole-2-carbonyl)-pyrazol-1-yl]-3-methyl-phenoxy}-benzonitrile] has an IC50 of 7 nM.
Compound `N#Cc1cccc(Oc2ccc(-n3ncc(C(=O)c4cc5ccccc5[nH]4)c3N)c(Cl)c2)c1` [Compound I-16, 3-{4-[5-Amino-4-(1H-indole-2-carbonyl)-pyrazol-1-yl]-3-chloro-phenoxy}-benzonitrile] has an IC50 of 82 nM.
Compound `Cc1cc(Oc2cccc(C(N)=O)c2)ccc1-n1ncc(C(=O)c2nc3ccccc3[nH]2)c1N` [Compound I-17, 3-{4-[5-Amino-4-(1H-benzoimidazole-2-carbonyl)-pyrazol-1-yl]-3-methyl-phenoxy}-benzamide] has an IC50 of 230 nM.
`Cc1cc(Oc2cccc(F)c2F)ccc1-n1ncc(C(=O)c2nc3ccccc3[nH]2)c1N` [Compound I-18, {5-Amino-1-[4-(2,3-difluoro-phenoxy)-2-methyl-phenyl]-1H-pyrazol-4-yl}-(1H-benzoimidazol-2-yl)-methanone] showed an IC50 of 5 nM.
Work on `Nc1c(C(=O)c2cc3ccc(CN4CCOCC4)cc3[nH]2)cnn1-c1ccc(Oc2ccccc2)cc1` [Compound I-19, [5-Amino-1-(4-phenoxy-phenyl)-1H-pyrazol-4-yl]-(6-morpholin-4-ylmethyl-1H-indol-2-yl)-methanone] yielded an IC50 of 0.5 nM.
Compound `N#Cc1cccc(Oc2ccc(-n3ncc(C(=O)c4cc5ccc(CN6CCOCC6)cc5[nH]4)c3N)c(Cl)c2)c1` [Compound I-20, 3-{4-[5-Amino-4-(6-morpholin-4-ylmethyl-1H-indole-2-carbonyl)-pyrazol-1-yl]-3-chloro-phenoxy}-benzonitrile] has an IC50 of 1 nM.
